The target in test [1] is T1, 5-hydroxytryptamine receptor 2A (Homo sapiens, UniProt P28223). The experiment in a line: Activation of human 5-HT2A receptor.
The target of test [2] is T1, 5-hydroxytryptamine receptor 2A. Put plainly: Displacement of [125I]DOI from 5-HT2A receptor (unknown origin) assessed as inhibition constant.
Test [3] shares this target. The experiment in a line: Activation of human 5-HT2A receptor assessed as maximal activation relative to control. The conditions noted are these: filed as activator.

The EC50 is the concentration needed to bring the measured effect to its halfway point. Low values mean higher potency in that assay, high ones lower potency in that assay. The term Ki denotes a measure of affinity in units of concentration, obtained from inhibition or displacement.

T1 sequence (P28223 whole entry): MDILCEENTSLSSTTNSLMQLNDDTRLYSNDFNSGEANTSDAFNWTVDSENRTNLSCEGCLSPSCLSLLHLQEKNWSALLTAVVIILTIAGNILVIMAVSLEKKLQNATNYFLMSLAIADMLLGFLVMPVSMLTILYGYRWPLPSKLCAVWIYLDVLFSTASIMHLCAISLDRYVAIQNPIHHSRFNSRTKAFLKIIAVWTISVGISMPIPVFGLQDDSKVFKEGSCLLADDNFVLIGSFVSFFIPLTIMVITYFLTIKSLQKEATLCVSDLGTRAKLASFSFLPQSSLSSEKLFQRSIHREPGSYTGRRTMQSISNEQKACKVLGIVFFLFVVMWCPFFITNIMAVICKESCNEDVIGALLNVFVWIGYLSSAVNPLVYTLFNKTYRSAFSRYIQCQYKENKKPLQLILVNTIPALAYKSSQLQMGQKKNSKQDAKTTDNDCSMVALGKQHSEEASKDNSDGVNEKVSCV

For the compound `CCN(CC(F)(F)F)C(=O)[C@@H]1C=C2c3cccc4[nH]cc(c34)C[C@H]2N(C)C1`, the EC50 in test [1] was found to be 3200 pM. The Ki in test [2] amounted to 450 pM. The max activation in test [3] stood at 82%.
Consider `C#CCN(C)C(=O)[C@@H]1C=C2c3cccc4[nH]cc(c34)C[C@H]2N(C)C1`, for which the EC50 in test [1] amounted to 980 pM. In test [2], the Ki amounted to 540 pM. Further, the max activation in test [3] came out at 70%.
For `CCN(CC(F)F)C(=O)[C@@H]1C=C2c3cccc4[nH]cc(c34)C[C@H]2N(C)C1` the same measures were 760 pM, 210 pM and 77%.
For `C#CCN(CC)C(=O)[C@@H]1C=C2c3cccc4[nH]cc(c34)C[C@H]2N(C)C1`, the EC50 in test [1] stood at 830 pM. In addition, the Ki in test [2] was determined as 360 pM. For the same compound, the max activation in test [3] stood at 68%.
For `CCN(CC#N)C(=O)[C@@H]1C=C2c3cccc4[nH]cc(c34)C[C@H]2N(C)C1`, in that order: 880 pM, 190 pM and 68%.
For `CCN(CCF)C(=O)[C@@H]1C=C2c3cccc4[nH]cc(c34)C[C@H]2N(C)C1` the same measures were 430 pM, 340 pM and 69%.
For `CN(CC(F)(F)F)C(=O)[C@@H]1C=C2c3cccc4[nH]cc(c34)C[C@H]2N(C)C1`, in that order: 9100 pM, 260 pM and 72%.
In test [1], `CN1C[C@H](C(=O)N(CC(F)F)CC(F)F)C=C2c3cccc4[nH]cc(c34)C[C@H]21` returned an EC50 of 900 pM. Besides, in test [2], the inhibition constant Ki came to 330 pM. Also, the max activation in test [3] came out at 82%.
For `CN1C[C@H](C(=O)N(CCF)CC(F)F)C=C2c3cccc4[nH]cc(c34)C[C@H]21`, in that order: 250 pM, 430 pM and 78%.
